Values after ≈ are worked out from the molar mass of the structure shown.
Experiments:
[1] = Aqueous solubility by visual inspection (Method 12); conditions: for solubility: water, thermodynamic from solid
[2] = Hydrolysis kinetics in buffers at 37° C., 4 μg/ml (LC-MS, Method 8); type: physicochemical
Method: Method 8: Hydrolysis Kinetics in Buffers or Plasma Samples at 37° C., 4 μg/ml (Table 9)
Test compounds were prepared in DMSO at 0.8 mg/ml (relative to the acid AF1). To obtain a concentration of 4 μg/ml, one microliter of test compounds or AF1 was dissolved in 199 μl of buffer or blank plasma. For test compounds, plasma samples and/or buffer samples were kept at 37° C. during 2 h, and 20 μL of mixture were collected at 0 minutes (before heating to 37° C.), 5 minutes, 10 minutes, 20 minutes, 30 minutes, 45 minutes, 60 minutes and 120 minutes. For AF1, 20 μl of plasma samples and/or buffer samples were collected at 0 minutes. All plasma samples were protein precipitated using 3-25 fold volume of acetonitrile, shaken and centrifuged for 20 minutes at 15 000×g, diluted with a varying volume of deionized water. All buffer samples were diluted with a varying volume of deionized water/acetonitrile. The formation of AF1 from test compounds was quantified using LC-MS/MS.

[3] = Hydrolysis kinetics in buffers at room temperature by 19F-NMR, 1 mg/ml (Method 9); type: physicochemical
Method: Method 9: Hydrolysis Kinetics in Buffers at Room Temperature by ^19F-NMR, 1 mg/ml (Table 9)
Samples were prepared by solubilizing the ester compound (1 mg) in 900 μL of D2O and 100 μL of adequate buffer (Citrate 100 mM pH 5, Phosphate 100 mM pH 6 and Phosphate 100 mM pH 7.4). After a short sonication to fasten solubilization, the hydrolysis curve of the esters was generated by measuring and comparing the ^19F-NMR signal integrations of both species (ester compound disappearing and the acid form AF1 appearing). T10 and T50, times for respectively 10% and 50% of ester hydrolysis, were determined by interpolation of the hydrolysis curves.

| Structure (SMILES) | solubility [1] | Hydrolysis at 4 μg/ml at 37° C. (LC-MS) T50 (50% degradation time) ([2]; Citrate 10 mM pH 5.0) | Hydrolysis at 4 μg/ml at 37° C. (LC-MS) T50 (50% degradation time) ([2]; Phosphate 10 mM pH 6.0) | Hydrolysis at 4 μg/ml at 37° C. (LC-MS) T50 (50% degradation time) ([2]; Phosphate 10 mM pH 7.4) | Hydrolysis at 1 mg/ml at room Temperature (NMR) T10 (10% degradation time) ([3]; Citrate 10 mM pH 5.0) | Hydrolysis at 1 mg/ml at room Temperature (NMR) T50 (50% degradation time) ([3]; Citrate 10 mM pH 5.0) | Hydrolysis at 1 mg/ml at room Temperature (NMR) T10 (10% degradation time) ([3]; Phosphate 10 mM pH 6.0) | Hydrolysis at 1 mg/ml at room Temperature (NMR) T50 (50% degradation time) ([3]; Phosphate 10 mM pH 6.0) | Hydrolysis at 1 mg/ml at room Temperature (NMR) T10 (10% degradation time) ([3]; Phosphate 10 mM pH 7.4) | Hydrolysis at 1 mg/ml at room Temperature (NMR) T50 (50% degradation time) ([3]; Phosphate 10 mM pH 7.4) | Aqueous Solubility at room temperature in H2O ([1]; room temperature, H2O, visual inspection) |
| --- | --- | --- | --- | --- | --- | --- | --- | --- | --- | --- | --- |
| NC(=O)[C@@H]1CC[C@@H]2CN1C(=O)N2OC(F)(F)C(=O)OC1CCOCC1 [Example 12, tetrahydropyran-4-yl 2-[[(2S,5R)-2-carbamoyl-7-oxo-1,6-diazabicyclo[3.2.1]octan-6-yl]oxy]-2,2-difluoro-acetate] | 500 to 1000 µg/mL (≈ 1.38 to 2.75 mM) | <1 min | <1 min | <1 min | 0.25 h | 1.3 h |  |  |  |  |  |
| CCCN(CCC)[C@H]1CC[C@H](OC(=O)C(F)(F)ON2C(=O)N3C[C@H]2CC[C@H]3C(N)=O)CC1 [Example 15, [4-(dipropylamino)cyclohexyl]2-[[(2S,5R)-2-carbamoyl-7-oxo-1,6-diazabicyclo[3.2.1]octan-6-yl]oxy]-2,2-difluoro-acetate] | > 1000 µg/mL | <1 min | <1 min | <1 min | 0.12 h | 0.567 h |  |  |  |  |  |
| COCC(C)(COC)OC(=O)C(F)(F)ON1C(=O)N2C[C@H]1CC[C@H]2C(N)=O [Example 10, [2-methoxy-1-(methoxymethyl)-1-methyl-ethyl]2-[[(2S,5R)-2-carbamoyl-7-oxo-1,6-diazabicyclo[3.2.1]octan-6-yl]oxy]-2,2-difluoro-acetate] | 4500 µg/mL (≈ 11.4 mM) |  |  |  | 3.5 h | 32 h | 1.5 h | 16 h | 0.2 h | 1 h |  |
| COCC1(OC(=O)C(F)(F)ON2C(=O)N3C[C@H]2CC[C@H]3C(N)=O)CCOCC1 [Example 11, [4-(methoxymethyl)tetrahydropyran-4-yl]2-[[(2S,5R)-2-carbamoyl-7-oxo-1,6-diazabicyclo[3.2.1]octan-6-yl]oxy]-2,2-difluoro-acetate] | 1300 µg/mL (≈ 3.19 mM) |  |  |  | 6.2 h | >41 h | 2 h | 16 h | 0.25 h | 1.3 h |  |
| NC(=O)[C@@H]1CC[C@@H]2CN1C(=O)N2OC(F)(F)C(=O)OC1C2CC3CC(C2)CC1C3 (stereo partly drawn) [Example 3, 2-adamantyl 2-[[(2S,5R)-2-carbamoyl-7-oxo-1,6-diazabicyclo[3.2.1]octan-6-yl]oxy]-2,2-difluoro-acetate] |  |  |  |  |  |  |  |  |  |  | Low solubility |
| COCCOCC(C)(C)OC(=O)C(F)(F)ON1C(=O)N2C[C@H]1CC[C@H]2C(N)=O [Example 9] | 6900 µg/mL (≈ 16.9 mM) |  |  |  | 3.2 h | 20 h | 2.3 h | 17 h | 0.35 h | 2.6 h |  |
